Reference: publication PMC12053792 (Journal of Peptide Science, 2025)
pIC50: −log10 of the molar value. “Also recorded” adds a separate entry of the source.

Legend:
HLA‐A2 = settings: ref [34], [35], [36]; cited from earlier work
Excerpt: (§1) Two CTA epitopes; NY‐ESO‐1_157‐165 and BAGE4_18–39 were employed as the antigenic components in our studies. […] BAGE4_18–39 represents the entire BAGE4 CTA minus the signal peptide; this antigen is expressed in 22% of melanomas and 30% of infiltrating bladder carcinomas; to our knowledge, it has not been evaluated in vivo. Inclusion of the ...

CD8+ cells = settings: models vaccinated against NY‐ESO‐1; ref [34], [35], [36]; cited from earlier work
Excerpt: as §1

IFNγ‐secreting T‐cells = assay: In vivo immunisation, IFNγ ELISpot on splenocytes, BALB/c mice
Description: Animal experiments were carried out with ethical approval from University of Nottingham ethical review board and under a Home Office approved project license (PP2706800). Mice were dosed with 10 nmol of material in 50 μL at Days 1, 8 and 15 (n = 3). IFNϒ ELISpot assays on splenocytes were conducted on termination at Day 21. General methods for the ELISpot can be found in the Supporting Information. Preparation of media and buffers and steps performed on Days 1 and 2 post‐termination; the ELISpot assays were performed using a laminar flow cabinet and aseptic techniques to ensure the sterility of media, reagents and plates at stages before development of the ELISpot. Development of the ELISpot on Day 4 posttermination was performed on the laboratory bench.
The response was measured by count of peptide‐specific IFNγ‐secreting T‐cells by ELISpot assay. Since no studies to date have addressed T‐cell responses to BAGE4 in conventional or HLA‐A2 (HHDII/DR1) transgenic mice, conventional mice were initially selected. The H‐2d haplotype (BALB/c) strain was selected for this study as the epitope predictions for peptides that bind to MHC I and II are effective for this strain (IEDB Analysis Resource). Splenocytes from the immunised mice were tested against three predicted epitope peptides from BAGE4_18–39, which should reactivate T‐cell responses in this strain of mice when immunised with BAGE4_18–39 vaccine candidates. Lipopolysaccharide (LPS; 5 μg/mL) was used as the positive control (non‐specific stimulus of the immune system).
In Vivo Evaluation (ELISpot Assay)
Animal experiments were carried out with ethical approval from University of Nottingham ethical review boards and under a Home Office approved project license (PP2706800). HLA-HHDII/DR1 (HLA-A2.1+/+ HLADR1+/+, Pasteur Institute) transgenic mice knocked out for murine MHC-I and II and expressing chimeric HLA-A2 (HHDII) and human HLA-DR1 or Balb/c mice (Charles River) aged 6-12 weeks were used. Mice were vaccinated with 10 ηmol of each immunogen at each timepoint. Doses were delivered subcutaneously (s.c.) in 50 µl volume on days 1, 8 and 15. No anaesthesia was used for injections. Responses were screened on day 21 after euthanasia by cervical dislocation. Preparation of media and buffers and steps performed on days 1 and 2 of the ELISpot assay were performed using a laminar flow cabinet and aseptic techniques to ensure the sterility of media, reagents and plates at stages before development of the ELISpot. Development of the ELISpot on day 4 can be performed on the […]
The following tables summarise the details of the vaccine candidates and vaccination procedure including (dose time points): […]
Table S6. Summary of the injection schedule (including dose concentration and number) for the following vaccine candidates: BAGE418-39 candidate (co-administered with IFA), Cys-BAGE4-MalLNP conjugate, Pam2Cys-SK4-BAGE18-39 (2), and 2-LNP using BALB/c mice. […]
peptide mixed splenocytes
1 with standard 10 nmol SC Day 1,8 & 15 3 Day 21 ELISA on
3 Pam2Cys-SK4- 10 nmol SC Day 1, 8 & 3 Day 1 Experiment
Pam2Cys-SK4- 10 nmol Day 1, 8 & Experiment
Elispot assays were performed using murine IFNγ capture and detection reagents according to the manufacturer’s instructions (Mabtech).
Day 1: Coating of plates with capture antibody
20 μL 35% ethanol was added to each well then discarded. Each plate was then washed 4 times with 200 μL of sterile distilled water per well. […]

anti‐BAGE4 antibody = assay: Competitive ELISA, antibody recognition of BAGE4 antigen; type: binding, rabbit; settings: 11 antigen concentrations between 1000 and 0.98 ng/mL, anti‐BAGE4 antibody SAB4301150 (1:250), 1 h, BAGE4-coated 384‐well plate, PBST with 0.05% Tween 20 as negative control, HRP/TMB, absorbance 450 nm
Description: Antibody–antigen complexes were then added to 384‐well plates which were precoated with 10 ng/mL of antigen. The secondary antibody, specific to the primary and conjugated to horseradish peroxidase (HRP) enzyme (produced in rabbit), was added, followed by TMB for colour development.
The antigen was diluted to 100 ng/ml in carbonate-bicarbonate
buffer, then 60 μL of the antigen dilution was pipetted into the wells of Maxisorp 384 well plate.
The plate was diluted as required (23 dilutions were prepared) and incubated at 4 °C under
foil overnight. The coating solution was removed and the plate washed three times by filling
the wells with 200 μL PBST. The solutions or washes were removed by flicking the plate over
a sink, then patting the plate dry with a paper towel.
Remaining protein-binding sites in the coated wells were blocked by adding 40 μL blocking
buffer (3% whey, 0.05% NaN3, 0.1% EDTA in PBS) to each well. The plates were covered
with foil and incubated for 2 h at rt or overnight at 4 °C. Plates were washed three times by
filling the wells with 200 μL PBS.
Incubation with primary and secondary antibody
In an Abgene 96 well plate, 8 dilutions of primary antibody (anti-BAGE4 produced in rabbit;
Sigma Aldrich SAB4301150, and anti-NY-ESO-1 produced in mouse; Sigma Aldrich N2038) […]
The optical density at 450 nm was recorded. […]

BALB/c mice = assay: In vivo toxicity in healthy BALB/c mice; settings: antigen alone / components administered separately
TLR2 = settings: Pam2Cys adjuvanting moiety; ref [19]; cited from earlier work
Excerpt: Due to the small size of many CTAs (several under 100 amino acids in length), it is possible to produce the whole CTA synthetically via solid‐phase peptide synthesis (SPPS), coupled with native chemical ligation if required. […] An additional benefit of using palmitoyl functionality is the ability of the fatty acid chains to be incorporated into nanoparticles via sel ...

SLLMWITQC [NY‐ESO‐1_157‐165]
Binding to HLA‐A2 (in words) (HLA‐A2): able to bind to HLA‐A2 | Immunogenicity / T‐cell reactivation (in words) (CD8+ cells): spontaneously immunogenic; also recorded: reactivate T‐cell responses (CD8+ cells)

BAGE4_18–39: small (22 amino acid, excluding the signal peptide) underexplored melanoma antigen (RLMKEESPVVSWWLEPEDGTAL; UniProt Q86Y28 18-39, looked up, fragment)
T‐cell response, median (IFNγ‐secreting T‐cells; BAGE4 peptide + IFA, 10 nmol in 50 μL s.c., days 1, 8, 15, n = 3, day 21, restimulated with BAGE4_18–39, IFNγ ELISpot count): 511 | T‐cell response / ANOVA significance (in words) (IFNγ‐secreting T‐cells; BAGE4 peptide + IFA, 10 nmol s.c., days 1, 8, 15, n = 3, restimulated with BAGE4_18–32): slightly lower responses | T‐cell response / ANOVA significance (in words) (IFNγ‐secreting T‐cells; BAGE4 peptide + IFA, 10 nmol s.c., days 1, 8, 15, n = 3, restimulated with BAGE4_18–39): good responses | T‐cell response / ANOVA significance (in words) (IFNγ‐secreting T‐cells; BAGE4 peptide + IFA, 10 nmol s.c., days 1, 8, 15, n = 3, restimulated with BAGE4_22–31): almost no response; also recorded: no significance | Immunogenicity (in words) (IFNγ‐secreting T‐cells; BALB/c mice, 10 nmol s.c., days 1, 8 and 15, n = 3, IFNγ ELISpot day 21): immunogenic in conventional BALB/c mice | pIC50 (anti‐BAGE4 antibody): 7.94 | Toxicity of antigen or components administered separately (BALB/c mice): does not show any toxicity

CCCCCCCCCCCCCCCC(=O)OCC(CSCC(N)C(=O)O)OC(=O)CCCCCCCCCCCCCCC (stereo not shown)
Potency relative to (R)‐analogue (TLR2): hundredfold decrease in potency compared to the (R)‐analogue
